From patent US20120028917A1, “Use Of N-(4-((3-(2-Amino-4-Pyrimidinyl)-2-Pyridinyl)Oxy)Phenyl)-4-(4-Methyl-2-Thienyl)-1-Phthalazinamine In The Treatment Of Antimitotic Agent Resistant Cancer” (Amgen Inc., priority 2009, published 2012)
Values joined by “and” are separate entries in the source; they are usually repeats but may differ in a detail not shown here. Identical values can stand only once.

Assays:
HCT116 AZD1152-resistant = test: Colony formation assay (FIG. 6-B); assay type: cell-based, human; conditions: both HCT116 cell lines (parental and AZD1152-resistant) compared
Description: Tumor cell lines were obtained from the American Type Culture Collection (ATCC) unless otherwise specified. The MDA-MB-231-PTX and NCI-H460-PTX cell lines were established by growing the cells in the presence of increasing concentrations of paclitaxel over a period of 6 months. The HCT116 AZD1152-resistant cell line was established by growing the cells in the presence of AZD1152 at 80 nmol/L. Tumor cells were treated with AMG 900, paclitaxel or AZD1152 (0.5, 5, 50 nmol/L) for 48 hours, washed twice with complete media, and cells were re-plated at a density of 5000 cells per well in drug-free complete media. Cells were grown until the DMSO control wells were confluent. Cells were stained with crystal violet dye (Sigma), washed with distilled water, and imaged using a digital scanner (Hewlett-Packard). Colony formation assay was performed with HCT116 cell lines (parental and AZD1152-resistant). Cells were treated with DMSO, AMG 900, AZD1152, or paclitaxel at the indicated concentrations for 48 hours and re-plated in complete media lacking the inhibitor. After the DMSO-treated cells reached confluence, the cells were stained with crystal violet and imaged (duplicate wells).

[1] = test system: NCI-H460-taxol resistant tumor xenografts; test: Growth of established NCI-H460-taxol resistant xenografts (Example 4); assay type: in vivo, athymic nude mice; conditions: 12.5mpk IP QD 5 days/week × 2 wks
Description: To investigate whether AMG 900-induced suppression of aurora kinase activity inhibits cell proliferation, the antitumor efficacy of AMG 900 was evaluated in vivo against NCI-H460-taxol resistant tumor xenografts in athymic nude mice. Mice were dosed PO with AMG 900 (BID) either intermittently or continuously. Mice were dosed IP with paclitaxel (taxol) 5 days/week. An internal Amgen compound was used as a positive control in this study (data not shown). Tumors were measured twice per week. Treatment began on day 12 when the tumors were established. All groups were provided nutritional supplements on a daily basis throughout the study to maintain body weight. AMG 900 (free base) was formulated into suspension to concentrations of 1.5 and 0.3 mg/mL. […] The duration of the dosing phase for AMG 900 was three weeks, and two weeks for the taxol group. The tumors were measured with a digital caliper and the mice were weighed twice per week. Tumor volumes were calculated as follows: […] Tumor inhibition was calculated as follows: […] FIG. 5 illustrates the effects of AMG 900 and Taxol treatment on the growth of established H460-taxol resistant tumors. […] Tumors were measured twice per week. Treatment began 12 days after tumor implantation (arrow) when tumors were approximately 170 mm^3. Mice were dosed PO or IP once or twice daily for 3 weeks. Data represent mean ±SE for each group. *P values (not shown) correspond to statistical difference between groups treated with vehicle and AMG 900 or Taxol analyzed with repeated measure Sheffe's ANOVA over time using […]. The scheduled days listed in the legend represent days/ week. All groups were provided nutritional supplements throughout the study.

NCI-H460-Taxol-r = test: Cell cycle DNA content assay (flow cytometry); assay type: cell-based; conditions: Homo sapiens, 24 h, Lung, Paclitaxel-selected, read-out: EC50 @ 24 hours, Sub G1
Description: (§1) NCI-H460 parental and NCI-H460 taxol-resistant cells were seeded at a density of 500,000 cells/well in a 6-well plate in 2 mL of appropriate complete media. The next day cells were treated with AMG 900 or taxol over a 6-point concentration range with a final DMSO concentration of 0.05% in media. After 24 hours, cells were pulsed with BrdU (1:100 dilution) and harvested. Cells were centrifuged at 1600 rpm for 4 minutes and the supernatant was aspirated. Cells were washed in 1× PBS and fixed in 900 μL of ice cold 90% methanol and stored at −20° C. Fixed cells were centrifuged at 2000 rpm for 4 minutes to remove 90% methanol. Cells were washed with 200 μL of wash buffer and stained with 200 μL of propidium iodide (PI) overnight at 4° C. in the dark. Data was acquired and analyzed by flow cytomety (LSRII). A threshold gate was applied according to +4N (same as ≧4N) DNA content and SubG1 positive populations based on DMSO-treated control and low/high drug-treated groups. The data was represented as a percentage of +4N DNA and SubG1 positive subpopulations. The +4N (same as ≧4N) DNA content or SubG1 cellular EC50 values were calculated using a 4-parameter equation. Lung tumor cell lines were treated with control (DMSO), AMG 900 or taxol over a 6-point dose range for 24 hours. Flow cytometric-based cell cycle analysis was performed to measure the percentage of ≧4N DNA content or SubG1 DNA content positive cells. The dose-response curves for AMG 900 represent the drug concentration plotted against the percentage of ≧4N DNA content positive cells. The dose-response curves for taxol represent the drug concentration plotted against the percentage of SubG1 DNA content positive cells. The EC50 values were calculated by 4-parameter fit model.

NCI-H460 = test: Cell cycle DNA content assay (flow cytometry); assay type: cell-based; conditions: Homo sapiens, 24 h; NCI-H460, Lung, Parent line; read-out: EC50 @ 24 hours, Sub G1
Description: as §1

MDA-MB-231 = test: Cell cycle DNA content assay (flow cytometry); assay type: cell-based; conditions: Homo sapiens, 24 h; MDA-MB-231, Breast, Parent line; read-out: EC50 @ 24 hours, Sub G1
Description: (§2) MDA-MB-231(F11)-luc parent and taxol-resistant cells were seeded at a density of 250,000 cells/well in a 12-well plate in 1 mL of in the appropriate media, in duplicates. The next day cells were treated with AMG 900 or taxol over a 10-point concentration range with a final DMSO concentration of 0.1% in taxol-free media. After 24 hours, cells were harvested with 1× trypsin-EDTA and transferred to PCR tubes. Cells were centrifuged at 2000 rpm for 4 minutes and the supernatant was aspirated. Cells were fixed in 200 μL of ice cold 90% methanol and stored at −20° C. for at least 24 hours. Fixed cells were centrifuged at 2000 rpm for 4 minutes to remove 90% methanol. Cells were washed with wash buffer and stained with 200 μL of propidium iodide (PI) for 30 minutes at 4° C. in the dark. An additional 400 μL of PI was added before data acquisition. Data was acquired and analyzed by flow cytometry (LSRII). A threshold gate was applied according to +4N (same as ≧4N) DNA content based on DMSO control and low/high drug-treated groups. The data was represented as percentage of control for +4N DNA content positive populations. The +4N DNA content cellular EC50 values were assigned using 4-parameter equation. […] Flow cytometric-based cell cycle analysis was performed to measure the percentage of ≧4N DNA content or SubG1 DNA content positive cells. The dose-response curves for AMG 900 represent the drug concentration plotted against the percentage of ≧4N DNA content positive cells. The dose-response curves for taxol represent the drug concentration plotted against the percentage of SubG1 DNA content positive cells. The EC50 values were calculated by 4-parameter fit model.

MDA-MB-231-Taxol-r = test: Cell cycle DNA content assay (flow cytometry); assay type: cell-based; conditions: Homo sapiens, 24 h, Breast, Paclitaxel-selected, read-out: EC50 @ 24 hours, Sub G1
Description: as §2

MES-SA = test: p-Histone H3 assay (ArrayScan VTi); assay type: cell-based; conditions: Homo sapiens, 24 h, Uterine, Parent line
Description: (§3) MES-SA Dx5 and MES-SA cells were plated at a density of 10,000 cells/well onto 96-well plate in complete media and cultured for 24 hours. […] Cells were washed and fixed by adding 100 μL of 2× formaldehyde fixation buffer for 10 minutes and room temperature. […] Cells were immunostained with p-histone H3 antibody (5 μg/mL) and incubated at room temperature for 2 hours. Cells were washed in 100 μL of wash buffer. Next, cells were incubated with a goat anti-rabbit alexa-488 conjugated antibody (1.5 μg/mL) in wash buffer supplemented with Hoechest DNA dye (1 μg/mL) and incubated at room temperature in the dark for 30 minutes. Cells were washed twice with 100 μL of wash buffer. The 96-well plates were analyzed on an ArrayScan VTi (Cellomics) using a bioapplication algorithm (TargetActivation.V2). […] Cells were then fixed and stained with p-histone H3 antibody and counterstained with a DNA dye (Hoechest). Imaging-based analysis (ArrayScan VTi) was performed to measure the percentage of p-histone H3 positive cells. The dose-response curves represent either AMG 900 or taxol concentrations plotted against p-Histone H3 positive cells as a percentage of DMSO-treated control (POC). The EC50 values were calculated by 4-parameter fit model.

MES-SA Dx5 = test: p-Histone H3 assay (ArrayScan VTi); assay type: cell-based; conditions: Homo sapiens, 24 h; MES-SA Dx5, Uterine, Doxorubicin-selected, P-gp overexpressing
Description: as §3

EC50 (NCI-H460-Taxol-r): > 0.1 µM
EC50 (NCI-H460): 0.01 µM
EC50 (MDA-MB-231): 0.002 µM
EC50 (MDA-MB-231-Taxol-r): 0.095 µM
EC50 (MES-SA): 0.01 µM
EC50 (MES-SA Dx5): > 1.25 µM
Structure (SMILES): CC(=O)O[C@H]1C(=O)[C@@]2(C)[C@H]([C@H](OC(=O)c3ccccc3)[C@]3(O)C[C@H](OC(=O)[C@H](O)[C@@H](NC(=O)c4ccccc4)c4ccccc4)C(C)=C1C3(C)C)[C@]1(OC(C)=O)CO[C@@H]1C[C@@H]2O [Paclitaxel, reference compound]
sensitivity in colony formation (HCT116 AZD1152-resistant): equally sensitive
Tumor volume, Mean [1]: 1383 mm^3
Tumor volume, Median [1]: 1072.0 mm^3
% Inhibition (tumor growth) ([1]; listed as Taxol): 20% and 19.7%
